Experimental findings from ChEMBL document CHEMBL1121944, “Conformation-activity study of 4-phenylpiperidine analgesics” (1982) are described below.

Assay [1] is described as follows: Analgesic activity was determined. In kind it is functional.
A short description of assay [2]: Relative potency was determined to 3-dimethyl prodine after brain penetration. In kind it is functional.

In turn, `CCC(=O)OC1(c2ccccc2)CCN(C)CC1` displayed a median effective dose (ED50) in assay [1] of 1 mg/kg. The Relative potency in assay [2] was determined as 1.

Regarding `CCC(=O)OC1(c2ccccc2)CCN(C)CC1C` (stereo unspecified) [ALPHAPRODINE], it took a dose of 1.45 mg/kg to reach the 50% effect level in assay [1] (ED50). In assay [2], this molecule showed a Relative potency of 1.24.

In assay [1], `CCC(=O)O[C@@]1(c2ccccc2)CCN(C)C[C@@H]1C` [BETAPRODINE] returned an ED50 of 5.21 mg/kg. Moreover, the Relative potency in assay [2] was 1.77.

In general, ED50 refers to the midpoint of the dose-response relation. Low values mean greater potency, high ones weaker potency.
